The test system of data set [1] is U2-OS osteosarcoma cell line (negative control, SSAT non-expressing). Description: MTT cytotoxicity assay, U2-OS. The class given is cell-based, human. Conditions: for IC50 values (in words): does not express SSAT. The method, then: (§1) Each human cancer cell line was incubated with each of the four monoamine test drugs at a range of testing concentrations. Cytotoxicity expressed as half maximal inhibitory concentration or IC50 was determined based on a (dimethyl-2-thiazolyl)-2,5-diphenyl-2H-tetrazolium bromide or MTT assay. In parallel, the expression levels of SSAT in these cell lines were measured using a RT-qPCR assay.
Cells of the ten cell lines were harvested from their established adherent cultures with trypsin EDTA, pelleted by centrifugation, and resuspended in the appropriate medium to yield a suspension of cells for each cell line.
Each of the monoamine test drugs (amantadine, rimantadine, dopamine and L-DOPA) and the positive control (spermidine) was accurately weighed, dissolved and further diluted with sterile water into a series of solutions at 100× of their target incubation concentrations. The target incubation concentrations for amantadine, rimantadine, and dopamine were 0.03, 0.1, 0.3, 1, 3, 10, 30, 100, 300 and 1000 μM. The target incubation concentrations for L-DOPA and the positive control, spermidine, were 0.1, 0.3, 1, 3, 10, 30, 100, 300 and 1000 μM.
Incubation was performed in triplicate at each drug concentration for each cell line tested. […]
(§2) After three days of incubation with substrates, an aliquot of 5 mg/mL MTT was added to each well and then incubated for 1 to 3 hours. […] An aliquot from each well was measured for absorbance at 550 nm or 555 nm on a 96-well flat bottom plate with a microplate reader and DMSO for background absorbance correction.
Cytotoxicity was determined based on treating each cell line with each of the test drugs over a range of concentrations. Following a three day incubation period cytotoxicity was measured by an MTT assay. IC50 values were deduced based on plots of cytotoxicity level expressed as percentage inhibition over the testing concentrations as shown in FIGS. 5 to 14. In parallel to each drug treatment, each cell line was also treated with spermidine as a positive control and the IC50 value for spermidine was determined for comparison.
(Formazan colour is commonly taken as a measure of viable cells.)

Data set [2] concerns breast cancer cell line BT-549. Description: cells. Conditions: Homo sapiens, BT-549, 72 h, read-out: IC50 (cytotoxicity). The procedure:
as §1
(§3) Cells of the ten cell lines were harvested from their established adherent cultures with trypsin EDTA, pelleted by centrifugation, and resuspended in the appropriate medium to yield a suspension of cells for each cell line. […]
as §2
(§4) Cytotoxicity was determined based on treating each cell line with each of the test drugs over a range of concentrations. Following a three day incubation period cytotoxicity was measured by an MTT assay. IC50 values were deduced based on plots of cytotoxicity level expressed as percentage inhibition over the testing concentrations as shown in FIGS. 5 to 14. […]

In another data set the test system is NCI-H23 (lung cancer). The data set is described as follows: MTT cytotoxicity assay, NCI-H23. The data set is classed as cell-based. Conditions: Homo sapiens, 72 h, NCI-H23, three day incubation. The procedure:
as §1, §3, §2, §4

The subject of a further data set is LNCaP. The data set is described as follows: MTT cytotoxicity assay, LNCaP. The procedure:
as §1, §3, §2, §4

The test system of a further data set is T-47D. The data set is described as follows: MTT cytotoxicity assay, T-47D. The method, then:
as §1, §3, §2, §4

Data set [3] deals with human cancer cell lines (A549, H322, NCI-H23, MCF-7, T-47D, BT-549, LNCaP, PC-3, Du-145, U2-OS). The data set is described as follows: MTT cytotoxicity assay, across all cell lines evaluated. Conditions: 72 h, across all the cell lines evaluated, three day incubation, read-out: IC50 (cytotoxicity), range across cell lines. The data set is classed as cell-based. The source says: Three cell lines from each of lung, breast and prostate cancers have been selected based on literature SSAT expression data and used for potential cytotoxicity screening in the MTT assay. The SSAT non-expressing human osteosarcoma cell line U2-OS was used as the negative control cell line.

Data set [4] deals with SSAT non-expressing cell lines (U2-OS and HeLa). The data set is described as follows: Percent confluency during incubation with spermidine, SSAT non-expressing cell lines. The class given is cell-based, human. Conditions: spermidine from 22 μM to 550 μM, compared among U2-OS, Malme-3M, PC-3, HEK293.
The test system of data set [5] is SSAT over-expressing cell lines (Malme-M3 and PC-3). Description: Percent confluency during incubation with spermidine, SSAT over-expressing cell lines. The data set is classed as cell-based, human. Conditions: spermidine from 22 μM to 550 μM; compared among U2-OS, HeLa, Malme-3M, PC-3, HEK293.

SMILES strings stand for the structures. pIC50: −log10 of the molar value. Where two headings read alike, the source gives them in different places.

As for `N[C@@H](Cc1ccc(O)c(O)c1)C(=O)O` [L-DOPA], the “IC50 values (in words)” value in data set [1] is listed as “low IC50 values”.

For orientation: pIC50 means the IC50 on a negative log10 scale, so that one unit is a factor of ten. In the case of `NC12CC3CC(CC(C3)C1)C2` [amantadine, Amantadine], the pIC50 was 2.94 in data set [2] and 2.79 in the data set on NCI-H23 (lung cancer). Besides, the “cytotoxicity (in words)” value is reported as “high cytotoxicity” in the data set on LNCaP (LNCaP, over-expresses SSAT (>5-fold change)) and “high cytotoxicity” in the data set on T-47D (T-47D, over-expresses SSAT (>2 fold change)).

Regarding `NCCc1ccc(O)c(O)c1` [dopamine, Dopamine], the pIC50 is 4.47 in data set [1] (Homo sapiens, U2OS, 72 h, three day incubation, MTT) and 4.28 in data set [2]. For the same molecule, in data set [1], the “IC50 values (in words)” value is listed as “low IC50 values”.

Turning to `CC(N)C12CC3CC(CC(C3)C1)C2` (stereo not shown) [rimantadine, Rimantadine], the “cytotoxicity (in words)” value with LNCaP and in the data set on T-47D was “high cytotoxicity” in each case.

Turning to `NCCCCNCCCN` [spermidine, Spermidine], the pIC50 in data set [3] is 4.49 to 5.43. Besides, the “relative cell viability, expressed as percent confluency” value in data set [4] is “highest”; in data set [5], “lowest”.
